Measured values taken from US20200281897A1, “INDAZOLE DERIVATIVES FOR CANCER TREATMENT” (Servicio Andaluz de Salud, priority 2016, published 2020).

Columns and labels:
Type in all cases: cell-based, human
[1] = system: U266; assay: Western blot and immunofluorescence in U266 cells; details: U266, 50 μM
Description: The extracts for Western blot were taken after 0, 2, 6, 18, and 24 hours. The cells were lysed according to Gilbert et al., 2002. (J Immunol Methods. 2002, 271:185-201), by adding 2% ASB-14 (Calbiochem, Beeston, United Kingdom) to the isotonic lysis buffer. The protein concentration was determined by Pierce® Microplate BCA Protein Assay kit-Reducing Agent Compatible (Pierce, Rockford, Ill.). The samples were subjected to SDS/PAGE in AnykD precast gels (Bio Rad, Hercules, Calif.) and transferred to PVDF membranes using Trans-Blot® Turbo™ System (Bio-Rad). The membranes were incubated over night at 4° C. with primary antibody in 0.05% Tween 20-Tris buffered saline (TTBS) then with the suitable secondary antibody, and they were subjected to chemiluminescence detection. As a control condition, the cells were treated with DMSO (<0.15%) in RPMI 1640 medium from Gibco (Gaithersburg, Md.).
The antibodies for caspase-2, -8, -9, active caspase-3, -p-Akt (phospho T308), p-Erk (T202+Y204), -p-p38MAPK (phospho T180+Y182), -p-JNK (phospho T183+Y185), -SPT, and the CB1 and CB2 receptors were from Abcam, anti-MCL-1 and -Bcl-xL were from Santa Cruz Biotechnology, anti-PARP was from Cell Signaling Technology, anti-Bax and -Bak were from BD Biosciences. Anti-beta-tubulin was from Sigma-Aldrich. All the horseradish peroxidase (HRP)-conjugated secondary antibodies used were from Jackson ImmunoResearch and produced in a donkey to prevent the possible cross-reactivity when several tests were performed.
The cells treated for 6 hours with indazole compounds were collected and placed on a slide. Immunofluorescence staining was performed as described previously by Vielhaber et al. 2001 (Glycobiology. 2001, 11:451-7) using anti-ceramide as the primary antibody. The ceramide antibody was obtained from Sigma-Aldrich, and the Alexa-488-conjugated secondary antibody was obtained from Abcam. As a control condition, the cells were treated with DMSO (<0.15%) in RPMI 1640 medium from Gibco (Gaithersburg, Md.).

[2] = system: granulomonocytes (CD64+) and lymphocytes (CD45+); assay: Ex vivo viability of normal cell subpopulations of patient bone marrow by flow cytometry
Description: In vitro studies were carried out using six different human MM cell lines, U266, RPMI8226, MM1S, MM1R, U266-LR7, and RPMI-LR5. For ex vivo assays, human primary cells from healthy donors and MM patients were used (Table 1). Human MM cell lines U266, RPMI8226, and MM1.S were acquired from ATCC and lines U266-LR7, RPMI-LR5, and MM1.R were kindly provided by Dr. Enrique Ocio (Hospital Universitario de Salamanca, Spain). The primary cells were obtained from bone marrow (BM) aspirates or peripheral blood (PB) samples, and the peripheral blood mononuclear cells (PBMCs) were isolated by Ficoll-Hypaque centrifugation and washed twice in phosphate buffered saline (PBS) containing 1% BSA. […]
The cell viability of the MM cell lines and primary cells from healthy PB donors was also evaluated by flow cytometry using 7-AAD/Annexin V. Patient bone marrow (BM) cells were analyzed using 7-AAD with a combination of monoclonal antibodies against myeloma-associated antigens (anti-CD56-APC, anti-CD45-Pacific Blue, and anti-CD38-APC-H7 [BD Biosciences]) and antibodies for distinguishing the granulomonocytic population (anti-CD64-FITC) and lymphocytic population (anti-CD45-Pacific Blue). The cells were acquired by means of FACSCanto II flow cytometer (BD Biosciences) and analyzed using Infinicyt™ Software (Cytognos, Spain).

[3] = system: NB-4; assay: WST-1 cell viability assay, NB-4; details: NB-4, 18 hours
Description: U937, NB-4, KG-1, and MOLM-13 (DMSZ, Braunschweig, Germany) were cultured in complete RPMI 1640 medium (with 2 mM of L-glutamine, 100 mg of penicillin, 100 μg/ml of streptomycin, and with 10% FBS), supplemented with 10 mM HEPES, 1×NaPuvuvato, and 1× non-essential amino acids.
The cell lines and primary cells were cultured in 96-well plates (5×10e5 cells per well) with the addition of the indicated concentrations of WIN 55,212-2 or PGN cannabinoids in DMSO or with the solvent only in triplicate at 18, 48, and 72 hours. Caspase inhibitor Z-VAD (OMe)-FMK or the CB2 receptor antagonist PGN-8, -37, and -70, together with the cannabinoid WIN-55,212-2, were also added. Cell viability was determined by means of the WST-1 assay [2-(4-iodophenyl)-3-(4-nitrophenyl)-5-(2,4-disulfophenyl)-2H-tetrazolium] according to the manufacturer's instructions (Dojindo Molecular Technologies). Optical densities were measured at 450 nm using a Multiskan™ Go Microplate plate reader (Thermo Fisher Scientific, Waltham, Mass., USA).
Now it will be analyzed whether the exposure to cannabinoids had any effect on the viability of the tumor cells in vitro. […]

[4] = system: HL60; assay: Mitochondrial damage and ER stress in HL60 cells; details: HL60, 50 μM, 15 and 30 minutes
Description: The controls that are untreated and the cells (10^6 cells per assay) treated with WIN-55,212-2 (50 μM) for 15 and 30 minutes at 37° C. were stained with 5 μM MitoSOX probe [Molecular Probes (Invitrogen)] to detect the mitochondrial superoxide. The MitoSOX signal was detected by flow cytometry.
(§1) The detailed methodology for analyzing mitochondrial membrane potential (APm), Western Blot analysis, and immunocytofluorescence analysis has been described elsewhere 29

[5] = system: HL60; assay: Western blot and immunocytofluorescence in HL60 cells
Source text: as §1

CS(=O)(=O)O.Cc1c(C(=O)c2cccc3ccccc23)c2cccc3c2n1[C@H](CN1CCOCC1)CO3 [WIN-55, (R)-(+)-[2,3-dihydro-5-methyl-3-(4-morpholinomethyl)-pyrrolo[1,2,3]-1,4-benzoxazin-6-yl]-1-naphthalenylmethanone mesylate]
caspase-3 activation (cleaved forms, Western blot) [1]: induction of caspase-3 activation
expression of endoplasmic reticulum stress marker proteins CHOP, ATF-4, p-IRE1, XBP-1s [1]: slight but sustained decrease
expression of ceramides (immunofluorescence) ([1]; 6 hours): considerable increase in the expression of ceramides
expression of p-Akt (phospho-T308) ([1]; early points in time, decrease at later times): significant overexpression of p-Akt
expression level of serine-palmitoyltransferase (SPT) ([1]; maximum at 18 hours): increased
cell viability of normal cell subpopulations from patient bone marrow ([2]; granulomonocytes (CD64+) and lymphocytes (CD45+), 0-50 μM, 18 hours): barely affected
effect on the lymphocyte population (CD45+) ([2]; highest dose tested, 50 μM): induced an antiproliferative effect
% viable cells at 50 μM [3]: 49.1%
IC50 [3]: 25.1 µM
mitochondrial damage and ER stress [4]: early mitochondrial damage and ER stress
expression of Bax (immunocytofluorescence) ([5]; HL60): considerable increase in Bax
caspase activation pattern (Western blot) ([5]; HL60, 50 μM, 2, 6, 18 and 24 hours): activation of various caspases
